# Results published in article PMC8380238, “Structure-based virtual screening of CYP1A1 inhibitors: towards rapid tier-one assessment of potential developmental toxicants” (Archives of Toxicology, 2021).
# Where a name gives a salt, the structure may show the parent alone. Read-outs that look alike come from different tables or passages of the source.
# Assays:
# human CYP1A1 = system: human CYP1A1; parameters: unit not given beside the values; details: cited from earlier work
# [1] = molecular target: T1, human recombinant CYP1A1 (rCYP1A1) (Homo sapiens, UniProt P04798); test: CYP1A1 activity assay: inhibition of CEC metabolism (IC50)
# T1 sequence (P04798 1-512): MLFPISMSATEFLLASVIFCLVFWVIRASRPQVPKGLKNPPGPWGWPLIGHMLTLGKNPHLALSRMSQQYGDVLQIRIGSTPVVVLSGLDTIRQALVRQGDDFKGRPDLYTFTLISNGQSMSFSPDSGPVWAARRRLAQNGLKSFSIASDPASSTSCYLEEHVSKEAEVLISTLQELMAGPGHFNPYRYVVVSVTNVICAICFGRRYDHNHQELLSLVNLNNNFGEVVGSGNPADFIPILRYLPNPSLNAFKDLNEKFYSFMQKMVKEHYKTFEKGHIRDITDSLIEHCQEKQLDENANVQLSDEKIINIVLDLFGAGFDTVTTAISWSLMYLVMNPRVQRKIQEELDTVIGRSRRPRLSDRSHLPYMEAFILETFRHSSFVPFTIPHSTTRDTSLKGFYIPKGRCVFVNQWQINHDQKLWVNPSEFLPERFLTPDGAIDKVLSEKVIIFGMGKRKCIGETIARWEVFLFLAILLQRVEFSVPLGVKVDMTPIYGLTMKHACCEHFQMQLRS
# [2] = molecular target: T1, human recombinant CYP1A1 (rCYP1A1)
# [3] = molecular target: T1, human recombinant CYP1A1 (rCYP1A1); test: CYP1A1 activity assay repeated at six CEC concentrations (Ki, α, mode of inhibition)
# [4] = CYP1A1 IC50 (range of colour key, Fig. 5a)
Compound,AC50 (human CYP1A1),other results
CC1=C(/C=C/C(C)=C/C=C/C(C)=C/C(=O)O)C(C)(C)CCC1 [all-trans-Retinoic acid],,"AC50 (human CYP1A1; ToxCast NVS_ADME_hCYP1A1, NA = no AC50, ref ToxCast): 0.1194"
"CCCCCCCCn1sc(Cl)c(Cl)c1=O [4,5-Dichloro-2-octyl-3(2H)-isothiazolone]",0.9038,
Oc1ccc(C(c2ccc(O)cc2)C(Cl)(Cl)Cl)cc1,0.8687,
O=C(Nc1ccccc1)c1ccccc1I [Benodanil],-1.884,
CC(C)(O)c1coc(S(=O)(=O)NC(=O)Nc2c3c(cc4c2CCC4)CCC3)c1 [CP-456773],-1.144,
CC1COC(Cn2cncn2)(c2ccc(Oc3ccc(Cl)cc3)cc2Cl)O1 (stereo not shown) [Difenoconazole],0.1639,
CCOP(=S)(OCC)Oc1ccc([N+](=O)[O-])cc1 [Parathion],0.5508,
Cc1[nH]cnc1C[C@H]1CCc2c(C)c3ccccc3n2C1=O.Cl [Fabesetron hydrochloride],0.583,
CCOP(=O)(NC(C)C)Oc1ccc(SC)c(C)c1 (stereo not shown) [Fenamiphos],0.6838,
"CN(C)c1ccc(Cc2ccc(N(C)C)cc2)cc1 [4,4'-Methylenebis(N,N-dimethylaniline)]",0.5763,
"CC(C)(C#N)c1cc(Cn2cncn2)cc(C(C)(C)C#N)c1 [Anastrozole, reference compound]",,"IC50 [1, 4]: 100 to 1000 µM; IC50 ([1]; IC50): 190 µM"
CCCOC(=O)c1ccc(O)cc1 [Propyl paraben],,"IC50 [1, 4]: 10 to 100 µM; IC50 ([1]; IC50): 39 µM; MOI (mode of inhibition) [2]: Competitive; α (degree to which the binding of inhibitor changes the affinity of the enzyme for substrate) [3]: 6.2; Ki ([3]; CYP1A1 Ki (range of colour key, Fig. 5b)): 15 to 20 µM; Ki ([3]; Ki): 17 µM"
"Nc1cccc2c(N)cccc12 [1,5-Naphthalenediamine]",0.8388,
Chlorpyrifos oxon,0.9288,
CCCCN(CCCC)SN(C)C(=O)Oc1cccc2c1OC(C)(C)C2 [Carbosulfan],0.7573,
CSC(C)(C)C=NO [Aldicarb oxime],0.7517,
CCCOC/C(=N\c1ccc(Cl)cc1C(F)(F)F)n1ccnc1 [Triflumizole],0.6164,
Nc1ccc(-c2ccc(N)cc2)cc1 [Benzidine],0.5505,
C#CC(C)(C)NC(=O)c1cc(Cl)cc(Cl)c1 [Propyzamide],0.363,
CCNc1nc(Cl)nc(NCC)n1 [Simazine],0.05448,
COP(=S)(OC)SCN1C(=O)c2ccccc2C1=O [Phosmet],0.5339,
"C[C@]12CC[C@H](O)CC1=CC[C@@H]1[C@@H]2CC[C@]2(C)C(=O)CC[C@@H]12 [DHEA, dehydroepiandrosterone]",,"IC50 [1, 4]: 100 to 1000 µM; IC50 ([1]; IC50): 130 µM"
CS/C(C)=N\OC(=O)N(C)SN(C)C(=O)O/N=C(\C)SC [Thiodicarb],0.9955,
C[C@H]1CCCC(=O)CCC/C=C/c2cc(O)cc(O)c2C(=O)O1 [Zearalenone],,IC50 ([1]; IC50): 0.7 µM; MOI (mode of inhibition) [2]: Mixed; α (degree to which the binding of inhibitor changes the affinity of the enzyme for substrate) [3]: 3.5; Ki ([3]; Ki): 0.66 µM
Oc1cc2ccccc2c2ccccc12 [9-Phenanthrol],0.7409,

Compound,AC50 (human CYP1A1),other results
CON(C)C(=O)Nc1ccc(Cl)c(Cl)c1 [Linuron],0.4776,
"COc1cc(-c2ccc(N)c(OC)c2)ccc1N [3,3'-Dimethoxybenzidine]",0.5453,
COP(=S)(OC)Oc1ccc([N+](=O)[O-])cc1 [Methyl parathion],0.8544,
O=[N+]([O-])C(Br)(CO)CO [Bronopol],0.9179,
Oc1ccc2ccc3cccc4ccc1c2c34 [1-Hydroxypyrene],0.4188,
COP(=S)(OC)SCn1nnc2ccccc2c1=O [Azinphos-methyl],-0.4803,
COc1ccc(-c2ccccc2)cc1NNC(=O)OC(C)C [Bifenazate],-0.1841,
C#CCOC(=O)[C@@H](C)Oc1ccc(Oc2ncc(Cl)cc2F)cc1 [Clodinafop-propargyl],0.4557,
Oc1ccc2c(c1)-c1ccccc1C2 [3-Hydroxyfluorene],0.7484,
CCOP(=S)(OCC)Oc1ccc2c(C)c(Cl)c(=O)oc2c1 [Coumaphos],-0.5619,
CN(C)CCCN1c2ccccc2Sc2ccc(Cl)cc21 [Chlorpromazine hydrochloride],0.7565,
"CC(=O)N1CCN(c2ccc(OCC3COC(Cn4ccnc4)(c4ccc(Cl)cc4Cl)O3)cc2)CC1 (stereo not shown) [Ketoconazole, reference compound]",,IC50 ([1]; IC50): 0.099 µM; MOI (mode of inhibition) [2]: Noncompetitive; α (degree to which the binding of inhibitor changes the affinity of the enzyme for substrate) [3]: 0.68; Ki ([3]; Ki): 0.11 µM
CCOC(=O)CC(SP(=S)(OC)OC)C(=O)OCC (stereo not shown) [Malathion],0.4737,
Sc1nc2ccccc2s1 [2-Mercaptobenzothiazole],-0.7864,
COc1ccc(C(=CC(=O)N2CCOCC2)c2ccc(Cl)cc2)cc1OC [Dimethomorph],0.8349,
CC(C)(C)C(=O)C(Oc1ccc(Cl)cc1)n1cncn1 (stereo not shown) [Triadimefon],0.3192,
CC(C)NC(=O)N1CC(=O)N(c2cc(Cl)cc(Cl)c2)C1=O [Iprodione],0.8242,
CC(C)(c1ccc(O)cc1)c1ccc(O)cc1 [Bisphenol A],,"IC50 [1, 4]: 1 to 10 µM; IC50 ([1]; IC50): 2.4 µM; MOI (mode of inhibition) [2]: Competitive; α (degree to which the binding of inhibitor changes the affinity of the enzyme for substrate) [3]: 9.1; Ki ([3]; Ki): 0.53 µM"
COc1nn(CSP(=S)(OC)OC)c(=O)s1 [Methidathion],0.6887,
CC#Cc1cc(C)nc(Nc2ccccc2)n1 [Mepanipyrim],-0.2464,
c1ccc(C(O[C@@H]2CCCN(CCc3ccc4c(c3)OCO4)C2)c2ccccc2)cc1 [Zamifenacin],,"AC50 (human CYP1A1; NVS_ADME_hCYP1A1, values appear to be log10, ref ToxCast): 0.759"
CCOP(=S)(OCC)SCSCC [Phorate],0.6456,
Cc1cc(N=Nc2ccccc2C)ccc1N [2-Amino-5-azotoluene],0.8236,
CSc1nc(NC(C)C)nc(NC(C)C)n1 [Prometryn],0.888,
c1ccc2[nH]c(-c3cscn3)nc2c1 [Thiabendazole],0.674,

Compound,AC50 (human CYP1A1),other results
O=C(c1ccc(OCCN2CCCCC2)cc1)c1c(-c2ccc(O)cc2)sc2cc(O)ccc12 [Raloxifene hydrochloride],0.811,
CCCN(CCOc1c(Cl)cc(Cl)cc1Cl)C(=O)n1ccnc1 [Prochloraz],-0.384,
OC(c1ccc(Cl)cc1)(c1cncnc1)c1ccccc1Cl (stereo not shown) [Fenarimol],0.89,
CCNP(=S)(OC)O/C(C)=C/C(=O)OC(C)C (stereo not shown) [Propetamphos],0.3484,
N#CC(CCc1ccc(Cl)cc1)(Cn1cncn1)c1ccccc1 (stereo not shown) [Fenbuconazole],-0.05845,
CCNc1nc(Cl)nc(NC(C)C)n1 [Atrazine],0.9162,
CN(C)c1ccc(C(=C2C=CC(=[N+](C)C)C=C2)c2ccc(N(C)C)cc2)cc1 [Gentian Violet],0.2591,
O=[N+]([O-])c1c(Cl)c(Cl)c(Cl)c(Cl)c1Cl [Pentachloronitrobenzene],-0.9415,
CC1(C)CCC(=Cc2ccc(Cl)cc2)C1(O)Cn1cncn1 (stereo not shown) [Triticonazole],-0.101,
COC(=O)N(OC)c1ccccc1COc1ccn(-c2ccc(Cl)cc2)n1 [Pyraclostrobin],0.2248,
COC(=O)c1c(Cl)c(Cl)c(C(=O)OC)c(Cl)c1Cl [Chlorthal-dimethyl],,"AC50 (human CYP1A1; ToxCast NVS_ADME_hCYP1A1, NA cells left out, ref ToxCast): -0.9489"
CCOP(=S)(OCC)SCn1c(=O)oc2cc(Cl)ccc21 [Phosalone],-0.311,
O=C(Nc1ccccc1)Nc1ccnc(Cl)c1 [Forchlorfenuron],0.9909,
C=CCc1cc(S(=O)(=O)c2ccc(O)c(CC=C)c2)ccc1O,0.2892,
CNc1cnn(-c2cccc(C(F)(F)F)c2)c(=O)c1Cl [Norflurazon],0.8239,
CCCC1COC(Cn2cncn2)(c2ccc(Cl)cc2Cl)O1 (stereo not shown) [Propiconazole],0.9547,
CCCCOCCOCCOCc1cc2c(cc1CCC)OCO2 [Piperonyl butoxide],0.8015,
C=C(C)[C@H]1Cc2c(ccc3c2O[C@@H]2COc4cc(OC)c(OC)cc4[C@@H]2C3=O)O1 [Rotenone],0.8835,
"O=c1[nH]sc2ccccc12 [1,2-Benzisothiazolin-3-one]",0.7251,
CCOC(=O)C(Cl)Cc1cc(-n2nc(C)n(C(F)F)c2=O)c(F)cc1Cl (stereo not shown) [Carfentrazone-ethyl],0.8125,
C=CCOC(Cn1ccnc1)c1ccc(Cl)cc1Cl (stereo not shown) [Imazalil],0.1501,
C[C@]12CC[C@@H]3c4ccc(O)cc4CC[C@H]3[C@@H]1[C@@H](O)[C@@H](O)[C@@H]2O [Estetrol],,"IC50 ([1]; CYP1A1 IC50 (range of colour key, Fig. 5a), 5 µM CEC, range assigned by colour of the point): 100 to 1000 µM; IC50 ([1]; IC50, 5 µM CEC, maximum tested concentration 200 µM (ketoconazole 20 µM), ∞ = the best fitted model was the constant model): > 200 µM"
COC(=O)[C@H]1[C@H]2C[C@@H]3c4[nH]c5cc(OC)ccc5c4CCN3C[C@H]2C[C@@H](OC(=O)c2cc(OC)c(OC)c(OC)c2)[C@@H]1OC [Reserpine],-0.938,
